Patent US9340574B2, “Inhibitors of protein tyrosine phosphatases” (Indiana University Research and Technology Corporation, priority 2012, dated 2016)

How the values were obtained:
PTP-MEG2 = PTP-MEG2 (Homo sapiens (Human), UniProt P43378); assay: pNPP hydrolysis enzyme assay, PTP-MEG2; format: biochemical; conditions: for IC50: pNPP substrate, pH 7.0, 25° C., read-out: IC50 for PTP-MEG2
Protocol: (§1) Enzyme kinetic assay. PTP activity was assayed using p-nitrophenyl phosphate (pNPP) as a substrate in 3,3-dimethylglutarate buffer (50 mM 3,3-dimethylglutarate, pH 7.0, 1 mM EDTA, 150 mM NaCl, 2 mM DTT, 0.1 mg/mL BSA) at 25° C. The assays were performed in 96-well plates. Normally, to determine the IC50 values, the reaction was initiated by the addition of enzyme (final concentration at 10 nM) to a reaction mixture (0.2 mL) containing 2 mM (Km for the substrate) pNPP with various concentrations of inhibitors. The reaction rate was measured using a SpectraMax Plus 384 Microplate Spectrophotometer (Molecular Devices). To determine the mode of inhibition, the reactions were initiated by the addition of PTP-MEG2 to the reaction mixtures (0.2 mL) containing various concentrations of pNPP with different concentrations of the inhibitor 7. Data were fitted using SigmaPlot Enzyme Kinetics Module (Systat Software, Inc.).
PTP-MEG2 Overexpression, and Purification. The expression vector containing residues 277-582 of PTP-MEG2 catalytic domain was provided by Stefan Knapp at the University of Oxford. For protein expression, transformed cells were grown at 37° C. in Luria broth (LB) containing […] ampicillin for 4 h to an OD600 nm @0.6, and then induced for overnight at 18° C. with 0.4 mM IPTG. Cells were harvested by centrifugation (6500 rpm for 15 min at 4° C.), and the cell pellets from 1.5 L LB medium were suspended in 30 mL of ice-cold lysis buffer consisting of 5 mM imidazole, 500 mM NaCl, 20 mM Tris-HCl (pH 7.9), 0.05 mg/mL trypsin inhibitor and 0.1 mM PMSF. The suspensions were passed twice through a French Press at 1200 psi, and the cell lysates were centrifuged at 4° C. for 30 min at 16,000 rpm. The supernatants were mixed with 2 mL Ni-NTA Agarose (His*Bind Resin) (Qiagen) at 4° C. for 1 hour, then transferred mixture to an empty column. The column was washed by 200 mL binding buffer (5 mM imidazole, 500 mM NaCl, 20 mM Tris-HCl (pH 7.9)), followed by 20 mL wash buffer (20 mM imidazole, 500 mM NaCl, 20 mM Tris-HCl (pH 7.9)), and then eluted with 20 mL elution buffer (200 mM imidazole, 500 mM NaCl, 20 mM Tris-HCl (pH 7.9), 5 mM DTT). The elution was dialyzed for 6 h at 4° C. against 1 L buffer A (50 mM NaCl, 20 mM MES (pH6.0), 1 mM EDTA), and then loaded onto a Mono S column equilibrated at 4° C. with buffer A. The column was washed with 10 ml buffer A and then eluted with a 40 mL linear gradient of 0 to 1M NaCl in buffer A. The PTP-MEG2 was eluted at 0.35 M NaCl. The column fractions were analyzed by measuring the absorbance at 280 nm and by carrying out SDS-PAGE analysis. The fractions were combined, dialyzed against 1 L buffer A and concentrated at 4° C. to 8 mg/mL using an Amicon concentrator and then stored at −80° C.

PTP1B = PTP1B (Homo sapiens (Human), UniProt P18031); assay: pNPP hydrolysis enzyme assay, PTP1B; format: biochemical
Sequence of PTP1B (P18031 whole entry, species assumed): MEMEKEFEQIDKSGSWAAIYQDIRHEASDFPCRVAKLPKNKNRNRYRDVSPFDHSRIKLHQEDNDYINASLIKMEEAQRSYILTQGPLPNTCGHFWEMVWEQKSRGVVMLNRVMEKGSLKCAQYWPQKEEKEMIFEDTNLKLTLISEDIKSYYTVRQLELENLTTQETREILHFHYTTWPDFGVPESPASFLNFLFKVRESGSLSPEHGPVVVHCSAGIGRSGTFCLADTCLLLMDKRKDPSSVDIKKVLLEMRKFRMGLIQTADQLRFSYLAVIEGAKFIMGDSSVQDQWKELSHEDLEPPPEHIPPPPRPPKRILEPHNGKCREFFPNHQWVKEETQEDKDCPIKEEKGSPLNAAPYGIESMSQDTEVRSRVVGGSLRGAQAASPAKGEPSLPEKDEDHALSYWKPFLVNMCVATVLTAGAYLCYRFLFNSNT
Protocol: as §1

Sequence of PTP-MEG2 (P43378 277-582): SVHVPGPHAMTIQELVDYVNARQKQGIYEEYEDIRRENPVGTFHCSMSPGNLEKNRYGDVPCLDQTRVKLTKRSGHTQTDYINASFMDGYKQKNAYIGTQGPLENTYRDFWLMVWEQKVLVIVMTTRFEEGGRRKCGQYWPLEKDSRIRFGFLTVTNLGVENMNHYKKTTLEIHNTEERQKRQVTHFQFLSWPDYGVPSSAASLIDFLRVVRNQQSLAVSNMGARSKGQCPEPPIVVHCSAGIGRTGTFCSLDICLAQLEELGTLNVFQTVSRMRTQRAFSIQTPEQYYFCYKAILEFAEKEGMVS

improvement in potency / binding affinity for PTP-MEG2 over the preceding lead (PTP-MEG2; Compound 5 vs Compound 3, Compound 7 vs Compound 5) [fold] | IC50 (PTP1B; pNPP substrate) [nM] | selectivity for PTP-MEG2 over PTP1B (PTP1B; ratio of IC50 values) [fold] | Compound | IC50 (PTP-MEG2) [nM]
 |  |  | CC(=O)NC(Cc1ccc(C(F)(F)P(=O)(O)O)cc1)C(=O)NC(CCCNC(=O)c1cccc(I)c1)C(N)=O (centres unmarked) [Compound 3] | 900 ± 20
3.3 | 3400 ± 80 | 12.6 | Cc1ccc(C(=O)NC(Cc2ccc(C(F)(F)P(=O)(O)O)cc2)C(=O)NC(CCCNC(=O)c2cccc(I)c2)C(N)=O)cc1Br (centres unmarked) [Compound 5] | 270 ± 70
